Our source for the EC50 and solubility values is US20250382344A1, “Soluble GLP1/GIP/NPY2 Receptor Triple Agonists” (Boehringer Ingelheim International GmH, priority 2024, published 2025).

One data set has as its target T1, hGLP1R (Homo sapiens, UniProt P43220).
T1 construct: expressed in transfected cells; host or cells: HEK-293 CRE-luciferase reporter cells
Description: hGLP1R CreLuc assay in 0.5% and 100% plasma (HEK-293 CRE-luciferase reporter cells). In kind it is cell-based. Conditions: 0.5% human plasma, HEK-293 reporter cells, read-out: hGLP1R 0.5% hP. From the text:
CHO and HEK-293 recombinant cell lines express a luciferase reporter gene under control of the CAMP responsive element (CRE). As a second recombinant protein the GLP-1 and NPY2 receptors were expressed in the reporter gene HEK cells, and the GIP receptor was expressed in the reporter gene CHO cells, respectively. Stimulation of these recombinant cells with an agonist leads to an increase of intracellular CAMP levels. In the presence of CAMP, the transcription factor CRE binding protein (CREB) binds to the CRE and to the CREB binding protein (CBP), which leads to transcription of the luciferase reporter gene. Peptides upon serial-dilution in 100% DMSO were transferred into 384-well assay plates with 5 μl pre-dispensed assay buffer (1×HBSS, 20 mM HEPES, pH7.4 supplemented with 0.5% human plasma) using acoustic dispensing on a Labcyte ECHO. Cryo-preserved transgenic reporter gene cells were thawed in assay buffer. 20 μl (10.000 cells/well) were added to the plate with the peptides and incubated for 4 hours at 37° C. in a humidified incubator. Following incubation, assay plates are equilibrated to room temperature, followed by addition of 25 μl of Bright-Glo™ Luciferase reagent, incubation at room temperature for 10 minutes and analysis of luminescence (Envision Reader). […] EC50 values were calculated by non-linear regression using sigmoid concentration-response with variable slope.
The same assays were run in the presence of 100% plasma with no additional buffer constituents.
A general note: Reporter assays use an easily measured gene product as a stand-in for the process of interest.

Another data set has as its target T2, hGIPR (Homo sapiens, UniProt P48546).
T2 construct: expressed in transfected cells; host or cells: CHO CRE-luciferase reporter cells
T2 sequence (P48546 22-466): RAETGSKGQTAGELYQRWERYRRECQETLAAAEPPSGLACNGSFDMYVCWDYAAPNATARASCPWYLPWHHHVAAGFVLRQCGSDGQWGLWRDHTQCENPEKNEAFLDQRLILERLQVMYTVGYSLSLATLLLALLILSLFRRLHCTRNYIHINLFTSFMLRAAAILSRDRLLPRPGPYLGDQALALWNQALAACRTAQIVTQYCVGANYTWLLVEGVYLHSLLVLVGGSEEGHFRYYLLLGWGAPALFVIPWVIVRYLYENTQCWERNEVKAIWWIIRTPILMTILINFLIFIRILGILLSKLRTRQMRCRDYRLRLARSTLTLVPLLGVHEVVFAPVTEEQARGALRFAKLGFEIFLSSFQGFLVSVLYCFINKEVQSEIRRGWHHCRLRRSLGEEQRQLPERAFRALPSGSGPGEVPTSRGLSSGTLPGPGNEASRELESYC
Put plainly: hGIPR CreLuc assay in 0.5% and 100% plasma (CHO CRE-luciferase reporter cells). In kind it is cell-based. To be noted: 0.5% human plasma, read-out: hGIPR 0.5% hP.

Data set [1] is described as follows: Solubility in 0.1 M phosphate buffer at pH 7. In kind it is physicochemical. To be noted: 0.1 M phosphate buffer at pH 7, 10 mg/mL final peptide concentration, shaking 2 hours at room temperature, peptides as TFA-salts; measured sample pH 6.5-7.0.

T1 sequence (P43220 24-463): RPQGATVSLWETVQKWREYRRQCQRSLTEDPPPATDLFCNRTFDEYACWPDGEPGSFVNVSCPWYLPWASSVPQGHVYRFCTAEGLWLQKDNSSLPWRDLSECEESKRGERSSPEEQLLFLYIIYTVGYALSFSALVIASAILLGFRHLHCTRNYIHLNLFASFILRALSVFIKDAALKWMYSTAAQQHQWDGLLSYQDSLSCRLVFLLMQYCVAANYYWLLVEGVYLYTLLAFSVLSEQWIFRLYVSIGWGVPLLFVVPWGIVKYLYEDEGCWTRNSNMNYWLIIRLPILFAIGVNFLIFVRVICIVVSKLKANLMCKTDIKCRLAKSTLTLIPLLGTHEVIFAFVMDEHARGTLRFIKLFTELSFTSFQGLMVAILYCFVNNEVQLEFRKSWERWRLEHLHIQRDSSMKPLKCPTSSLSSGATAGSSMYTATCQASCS

Take `CC[C@H](C)[C@H](NC(=O)[C@H](CC(C)C)NC(=O)[C@H](Cc1c[nH]cn1)NC(=O)[C@H](CCCNC(=N)N)NC(=O)[C@@H](NC(=O)[C@H](Cc1ccccc1)NC(=O)[C@H](C)NC(=O)C(C)(C)NC(=O)[C@H](CCC(N)=O)NC(=O)[C@H](C)NC(=O)[C@H](CCC(N)=O)NC(=O)[C@H](CCCCN)NC(=O)[C@H](CCC(=O)O)NC(=O)[C@H](CC(C)C)NC(=O)C(C)(C)NC(=O)[C@@H](NC(=O)[C@H](CO)NC(=O)[C@H](Cc1ccc(O)cc1)NC(=O)[C@H](CC(=O)O)NC(=O)[C@H](CO)NC(=O)[C@@H](NC(=O)[C@H](Cc1ccccc1)NC(=O)[C@@H](NC(=O)CNC(=O)[C@H](CCC(=O)O)NC(=O)C(C)(C)NC(=O)[C@@H](N)Cc1ccc(O)cc1)[C@@H](C)O)[C@@H](C)O)[C@@H](C)CC)C(C)C)C(=O)N[C@@H](CC(N)=O)C(=O)N[C@@H](CCCCNC(=O)CC[C@H](NC(=O)CC[C@H](NC(=O)CC[C@H](NC(=O)CC[C@H](NC(=O)CC[C@H](NC(=O)CC[C@H](NC(=O)CCCCCCCCCCCCCCCCC(=O)O)C(=O)O)C(=O)O)C(=O)O)C(=O)O)C(=O)O)C(=O)O)C(=O)NC(C)(C)C(=O)N[C@H](C(=O)N[C@@H](CCCNC(=N)N)C(=O)N(C)[C@@H](CCC(N)=O)C(=O)N[C@@H](CCCNC(=N)N)C(=O)N[C@@H](Cc1ccc(O)cc1)C(N)=O)[C@@H](C)O` [Compound 2, Y-Aib-E-G-T-F-T-S-D-Y-S-I-Aib-L-E-K-Q-A-Q-Aib-A-F-V-R-H-L-I-N-K(1,3)-Aib-T-R-NMeQ-R-Y-NH2.C18DA-gGlu-gGlu-gGlu-gGlu-gGlu-gGlu(1,2)]: the EC50 on hGLP1R amounted to 0.8 nM; at hGIPR it was 0.4 nM. For the same compound, the solubility (as a rule, the dissolved amount per volume that the medium holds) at 2 h in data set [1] is 5000 µg/mL.
Regarding `CC[C@H](C)[C@H](NC(=O)[C@H](CC(C)C)NC(=O)[C@H](Cc1c[nH]cn1)NC(=O)[C@H](CCCNC(=N)N)NC(=O)[C@@H](NC(=O)[C@H](Cc1ccccc1)NC(=O)[C@H](C)NC(=O)C(C)(C)NC(=O)[C@H](CCC(N)=O)NC(=O)[C@H](C)NC(=O)[C@H](CCC(N)=O)NC(=O)[C@H](CCCCN)NC(=O)[C@H](CCC(=O)O)NC(=O)[C@H](CC(C)C)NC(=O)C(C)(C)NC(=O)[C@@H](NC(=O)[C@H](CO)NC(=O)[C@H](Cc1ccc(O)cc1)NC(=O)[C@H](CC(=O)O)NC(=O)[C@H](CO)NC(=O)[C@@H](NC(=O)[C@H](Cc1ccccc1)NC(=O)[C@@H](NC(=O)CNC(=O)[C@H](CCC(=O)O)NC(=O)C(C)(C)NC(=O)[C@@H](N)Cc1ccc(O)cc1)[C@@H](C)O)[C@@H](C)O)[C@@H](C)CC)C(C)C)C(=O)N[C@@H](CC(N)=O)C(=O)N[C@@H](CCCCNC(=O)COCCOCCNC(=O)CC[C@H](NC(=O)CC[C@H](NC(=O)CC[C@H](NC(=O)CC[C@H](NC(=O)CC[C@H](NC(=O)CCCCCCCCCCCCCCCCC(=O)O)C(=O)O)C(=O)O)C(=O)O)C(=O)O)C(=O)O)C(=O)N[C@@H](CC(C)C)C(=O)N[C@H](C(=O)N[C@@H](CCCNC(=N)N)C(=O)N[C@@H](CCC(N)=O)C(=O)N[C@@H](CCCNC(=N)N)C(=O)N[C@@H](Cc1ccc(O)cc1)C(N)=O)[C@@H](C)O` [Compound 7, Y-Aib-E-G-T-F-T-S-D-Y-S-I-Aib-L-E-K-Q-A-Q-Aib-A-F-V-R-H-L-I-N-K(1,3)-L-T-R-Q-R-Y-NH2.C18DA-gGlu-gGlu-gGlu-gGlu-gGlu-OEG(1,2)], the values for the EC50 on hGLP1R and on hGIPR were 0.7 nM and 0.4 nM, respectively. In addition, the solubility at 2 h in data set [1] was determined as 4500 µg/mL.
Take `CC[C@H](C)[C@H](NC(=O)[C@H](CC(C)C)NC(=O)[C@H](Cc1c[nH]cn1)NC(=O)[C@H](CCCNC(=N)N)NC(=O)[C@@H](NC(=O)[C@H](Cc1ccccc1)NC(=O)[C@H](C)NC(=O)C(C)(C)NC(=O)[C@H](CCC(N)=O)NC(=O)[C@H](C)NC(=O)[C@H](CCC(N)=O)NC(=O)[C@H](CCCCN)NC(=O)[C@H](CCC(=O)O)NC(=O)[C@H](CC(C)C)NC(=O)C(C)(C)NC(=O)[C@@H](NC(=O)[C@H](CO)NC(=O)[C@H](Cc1ccc(O)cc1)NC(=O)[C@H](CC(=O)O)NC(=O)[C@H](CO)NC(=O)[C@@H](NC(=O)[C@H](Cc1ccccc1)NC(=O)[C@@H](NC(=O)CNC(=O)[C@H](CCC(=O)O)NC(=O)C(C)(C)NC(=O)[C@@H](N)Cc1ccc(O)cc1)[C@@H](C)O)[C@@H](C)O)[C@@H](C)CC)C(C)C)C(=O)N[C@@H](CC(N)=O)C(=O)N[C@@H](CCCCNC(=O)CC[C@H](NC(=O)CC[C@H](NC(=O)CC[C@H](NC(=O)CC[C@H](NC(=O)CC[C@H](NC(=O)CC[C@H](NC(=O)CCCCCCCCCCCCCCCCC(=O)O)C(=O)O)C(=O)O)C(=O)O)C(=O)O)C(=O)O)C(=O)O)C(=O)N[C@@H](CC(C)C)C(=O)N[C@H](C(=O)N[C@@H](CCCNC(=N)N)C(=O)N[C@@H](CCC(N)=O)C(=O)N[C@@H](CCCNC(=N)N)C(=O)N[C@@H](Cc1ccc(O)cc1)C(N)=O)[C@@H](C)O` [Compound 12, Y-Aib-E-G-T-F-T-S-D-Y-S-I-Aib-L-E-K-Q-A-Q-Aib-A-F-V-R-H-L-I-N-K(1,3)-L-T-R-Q-R-Y-NH2.C18DA-gGlu-gGlu-gGlu-gGlu-gGlu-gGlu(1,2)]: the EC50 on hGLP1R amounted to 1.8 nM; at hGIPR, 0.8 nM. Moreover, the solubility at 2 h in data set [1] worked out at 5000 µg/mL.
As for `CC[C@H](C)[C@H](NC(=O)[C@H](CC(C)C)NC(=O)[C@H](Cc1c[nH]cn1)NC(=O)[C@H](CCCNC(=N)N)NC(=O)[C@@H](NC(=O)[C@H](Cc1ccccc1)NC(=O)[C@H](C)NC(=O)C(C)(C)NC(=O)[C@H](CCC(N)=O)NC(=O)[C@H](C)NC(=O)[C@H](CCC(N)=O)NC(=O)[C@H](CCCCN)NC(=O)[C@H](CCC(=O)O)NC(=O)[C@H](CC(C)C)NC(=O)C(C)(C)NC(=O)[C@@H](NC(=O)[C@H](CO)NC(=O)[C@H](Cc1ccc(O)cc1)NC(=O)[C@H](CC(=O)O)NC(=O)[C@H](CO)NC(=O)[C@@H](NC(=O)[C@H](Cc1ccccc1)NC(=O)[C@@H](NC(=O)CNC(=O)[C@H](CCC(=O)O)NC(=O)C(C)(C)NC(=O)[C@@H](N)Cc1ccc(O)cc1)[C@@H](C)O)[C@@H](C)O)[C@@H](C)CC)C(C)C)C(=O)N[C@@H](CC(N)=O)C(=O)N[C@@H](CCCCNC(=O)CCCCCNC(=O)CC[C@H](NC(=O)CC[C@H](NC(=O)CC[C@H](NC(=O)CC[C@H](NC(=O)CC[C@H](NC(=O)CCCCCCCCCCCCCCCCC(=O)O)C(=O)O)C(=O)O)C(=O)O)C(=O)O)C(=O)O)C(=O)NC(C)(C)C(=O)N[C@H](C(=O)N[C@@H](CCCNC(=N)N)C(=O)N[C@@H](CCC(N)=O)C(=O)N[C@@H](CCCNC(=N)N)C(=O)N[C@@H](Cc1ccc(O)cc1)C(N)=O)[C@@H](C)O` [Compound 13, Y-Aib-E-G-T-F-T-S-D-Y-S-I-Aib-L-E-K-Q-A-Q-Aib-A-F-V-R-H-L-I-N-K(1,3)-Aib-T-R-Q-R-Y-NH2.C18DA-gGlu-gGlu-gGlu-gGlu-gGlu-AHX(1,2)], the EC50 at hGLP1R was 0.4 nM; on hGIPR, 0.1 nM. Besides, the solubility at 2 h in data set [1] was 4300 µg/mL.
Regarding `CC[C@H](C)[C@H](NC(=O)[C@H](CC(C)C)NC(=O)[C@H](Cc1c[nH]cn1)NC(=O)[C@H](CCCNC(=N)N)NC(=O)[C@@H](NC(=O)[C@H](Cc1ccccc1)NC(=O)[C@H](C)NC(=O)C(C)(C)NC(=O)[C@H](CCC(N)=O)NC(=O)[C@H](C)NC(=O)[C@H](CCC(N)=O)NC(=O)[C@H](CCC(N)=O)NC(=O)[C@H](CCC(=O)O)NC(=O)[C@H](CC(C)C)NC(=O)C(C)(C)NC(=O)[C@@H](NC(=O)[C@H](CO)NC(=O)[C@H](Cc1ccc(O)cc1)NC(=O)[C@H](CC(=O)O)NC(=O)[C@H](CO)NC(=O)[C@@H](NC(=O)[C@H](Cc1ccccc1)NC(=O)[C@@H](NC(=O)CNC(=O)[C@H](CCC(=O)O)NC(=O)C(C)(C)NC(=O)[C@@H](N)Cc1ccc(O)cc1)[C@@H](C)O)[C@@H](C)O)[C@@H](C)CC)C(C)C)C(=O)N[C@@H](CC(N)=O)C(=O)N[C@@H](CCCCNC(=O)[C@@H](N)CCCCNC(=O)CC[C@H](NC(=O)CC[C@H](NC(=O)CC[C@H](NC(=O)CC[C@H](NC(=O)CC[C@H](NC(=O)CC[C@H](NC(=O)CCCCCCCCCCCCCCCCC(=O)O)C(=O)O)C(=O)O)C(=O)O)C(=O)O)C(=O)O)C(=O)O)C(=O)NC(C)(C)C(=O)N[C@H](C(=O)N[C@@H](CCCNC(=N)N)C(=O)N[C@@H](CCC(N)=O)C(=O)N[C@@H](CCCNC(=N)N)C(=O)N[C@@H](Cc1ccc(O)cc1)C(N)=O)[C@@H](C)O` [Compound 23, Y-Aib-E-G-T-F-T-S-D-Y-S-I-Aib-L-E-Q-Q-A-Q-Aib-A-F-V-R-H-L-I-N-K(1,3)-Aib-T-R-Q-R-Y-NH2.C18DA-gGlu-gGlu-gGlu-gGlu-gGlu-gGlu-eLys(1,2)], the EC50 at hGLP1R stood at 0.5 nM; on hGIPR, 0.2 nM. Besides, the solubility at 2 h in data set [1] is 9400 µg/mL.
